Measured values published in EP0663826B1, “AMINO ACIDS CONTAINING PARENTERAL FORMULATIONS FOR THE TREATMENT OF HYPOTENSION AND RELATED PATHOLOGIES” (BOARD OF REGENTS THE UNIVERSITY OF TEXAS SYSTEM, priority 1991, dated 1993).

Tested on: IL-1-Induced Hypotension in Dogs
Assay: IL-1-induced hypotension in dogs
Type: in vivo
Settings: for MAP after arginine administration: then L-arginine 400 mg/kg
Protocol: • FIGURE 1 - Reversal of hypotension associated with the administration of IL-1 to dogs. The tracing shown is a representative experiment that was repeated four times. Each dog was anesthetized and […] as described herein, and baseline cardiovascular data were monitored for 30 minutes. IL-1 was dissolved in phosphate-buffered saline (pH 7.4) containing 1 mg/ml of dog albumin, and the resulting solution was infused intravenously for three minutes to deliver a dose of 50 µg/kg. MAP was continuously monitored; when a stable nadir was reached and maintained for more than 10 minutes or when MAP dropped below 50 mm Hg, NAA (20 mg/kg in 10 ml phosphate-buffered saline) was administered by intravenous infusion for 30 seconds. Sixty minutes after MAP was restored to baseline or higher values, L-arginine (400 mg/kg in 20 ml phosphate-buffered saline) was administered by slow intravenous infusion for 5 minutes. Anesthetized dogs given IL-1 (50 µg/kg) developed a progressive, moderately severe hypotension, with MAP decreasing from a baseline of 111 +/- 7 mm Hg to 80 +/- 2 mm Hg within about 3 hours. Hypotension was rapidly reversed by the intravenous administration of a single bolus dose of NAA (20 mg/kg, 88 umol/kg), with MAP increasing by from 46 +/- 9 mm Hg (58%_ to 125 +/- 8 mm Hg. • FIGURES 2A, 2B, 2C - Inhibition of IL-1-activated NO· production by N^ω-substituted arginine analogues. Figure 2A: Comparison of nitrite synthesis inhibition in smooth muscle cells by the L-isomers of NAA, NMA, and NNA and by the D-isomer of NMA. Figure 2B: Concentration dependence of nitrite synthesis inhibition in smooth muscle cells by NAA as a function of different L-arginine concentration in the culture medium. Confluent monolayers of smooth muscle cells in 96-well microtiter plates were treated with a combination of 100 ng/ml IL-1 and 50 ng/ml IFN-γ for 24 hours. Cells were then washed with Hanks' balanced salt solution, and fresh medium containing the indicated concentration of L-arginine was added. Points indicate means ± SD of nitrite production, expressed as percent of control, during a 16-hour exposure to arginine analogues (n = 3-4). Figure 2C: Effect of NAA on smooth muscle cell NO· synthase. Cytosol from cytokine-induced smooth muscle cells (∼2 µg protein) was incubated with 1 mM L-arginine, 0.5 mM NADPH, 1 mM dithiothreitol, 10 µM flavin-adenine dinucleotide, 10 µM tetrahydrobiopterin, and 0.1 U/ml dihydropteridine reductase in a total volume of 100 µL. The time course of Fe^2+-myoglobin oxidation was measured in the absence (control) or presence of 300 µM NAA (+NAA). […] FIGURE A: Time course of nitrite synthesis elicited by 40 ng/mL IL-1 alone (open circles) and by IL-1 in the presence of 50 ng/ml IFN-γ (open triangles). […] Inclusion of IL-1 receptor antagonist (40 µg/mL; filled symbols) in the culture medium inhibited nitrite production stimulated by both IL-1 and IL-1 plus IFN-γ. FIGURE B: IL-1 concentration dependence for smooth muscle cell nitrite production. Data points indicate nitrite produced during a 29-hour incubation with the indicated concentration of IL-1 alone (open circles) or in the presence of IL-1 plus 50 ng/mL IFN-γ (open triangles). All values are means ± SD for nitrite production by confluent smooth muscle cell monolayers grown in 96-well microtiter plates (60-80 X 10^3 cells per well; n = 3-4).
Experiments were conducted on healthy mongrel dogs that were free of microfilaria and weighed 25-28 kg each. […]

N=C(N)NCCC[C@H](N)C(=O)O [L-arginine]
average decrease in systemic vascular resistance following arginine (IL-1-treated animals given NAA, then arginine): 61%
MAP after arginine administration (IL-1-treated dogs given NAA): 66 ± 27 mm Hg
MAP after arginine administration (control dogs given NAA): essentially at baseline levels
